Assays:
[1] = system: SOCE (store operated calcium entry) in CHO cells; experiment: Assay of SOCE (store operated calcium entry)-inhibiting action; format: cell-based, Chinese hamster; conditions: Cricetulus griseus, CHO, CHO cells, thapsigargin, read-out: SOCE level (percentage of inhibition); for inhibition at 10 µM: test compound 10 μmol; for inhibition at 30 µM: test compound 30 μmol; for inhibition at 100 µM: test compound 100 μmol
Method in brief: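 CHO cells in calcium-free BSS received compound, then 1 μM thapsigargin 2 min later to deplete stores; after 9 min, 2 mM calcium chloride (final) added. Percent inhibition of the rise in intracellular calcium determined at various compound concentrations.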

[2] = system: IICR (IP3 induced calcium release) in CHO cells; experiment: Assay of IICR (IP3 induced calcium release)-inhibiting action; format: cell-based, Chinese hamster; conditions: Cricetulus griseus, CHO, CHO cells, 10 μM ATP, read-out: IICR level (percentage of inhibition); for inhibition at 10 µM: test compound 10 μmol; for inhibition at 30 µM: test compound 30 μmol; for inhibition at 100 µM: test compound 100 μmol
Method in brief: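 CHO cell medium replaced with calcium-containing BSS; compound added 1 min later, then 10 μM ATP after a further 2 min. Percent inhibition of the ATP-evoked rise in intracellular calcium determined at each compound concentration.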

| SMILES | inhibition at 10 µM [1] [%] | inhibition at 30 µM [1] [%] | inhibition at 100 µM [1] [%] | inhibition at 10 µM [2] [%] | inhibition at 30 µM [2] [%] | inhibition at 100 µM [2] [%] |
| --- | --- | --- | --- | --- | --- | --- |
| CCCCCCN(CCCCCC)CCC(=O)c1ccc(Cl)s1 [Example 385, 2-(N,N-dihexyl)aminoethyl-5-chloro-2-thienylketone] | 0 | 95 | 53 | 0 | 14 | 0 |
| N[C@@H](CSSC[C@@H](C(=O)O)N(CCC(=O)c1ccc(Cl)s1)CCC(=O)c1ccc(Cl)s1)C(=O)O [Example 387, N,N-bis(2-(5-chloro-2-thiophenoyl)ethyl)cystine] | 20 | 40 | 50 | 0 | 0 | 70 |
| NCCSSCCN(CCC(=O)c1ccc(I)cc1)CCC(=O)c1ccc(I)cc1 [Example 388, N,N-bis(4-iodobenzoylethyl)cystamine] | 20 | 40 | 50 | 0 | 0 | 70 |
| CC(C)N(CCC(=O)c1ccc(I)s1)Cc1ccccc1 [Example 390, 2-(N-isopropyl-N-benzyl)aminoethyl-5-iodo-2-thienylketone] | 20 | 40 | 50 | 0 | 0 | 70 |
| CC(C)N(CCC(=O)c1ccc(Br)s1)C(C)C [Example 395, 2-diisopropylaminoethyl-5-bromo-2-thienylketone] | 20 | 40 | 50 | 14 | 67 | 83 |
| CC(C)N(CCC(=O)c1ccc(Cl)s1)C(C)C [Example 396, 2-diisopropylaminoethyl-5-chloro-2-thienylketone] | 20 | 40 | 50 | 2 | 72 | 83 |
| CC(C)N(CCC(=O)c1ccncc1)C(C)C [Example 397, 2-diisopropylaminoethyl-4-pyridylketone] | 20 | 40 | 50 | 0 | 0 | 10 |
| N#Cc1ccc(C(=O)CCNCCSSCCNCCC(=O)c2ccc(C#N)cc2)cc1 [Example 398] | 20 | 40 | 50 | 1 | 44 | 80 |
| COC(=O)C(CSSCC(NCCC(=O)c1ccc(C#N)cc1)C(=O)OC)NCCC(=O)c1ccc(C#N)cc1 (stereo not drawn) [Example 399, N,N-bis(4-cyanobenzoylethyl)cystinemethylester] | 20 | 40 | 50 | 0 | 0 | 70 |
| COC(=O)C(CSSCC(NCCC(=O)c1nccs1)C(=O)OC)NCCC(=O)c1nccs1 (stereo not drawn) [Example 400] | 20 | 40 | 50 | 19 | 0 | 13 |
| COC(=O)C(CSSCC(NCCC(=O)c1ccco1)C(=O)OC)NCCC(=O)c1ccco1 (stereo not drawn) [Example 401, N,N-bis(2-furoylethyl)cystinemethylester] | 20 | 40 | 50 | 31 | 1 | 57 |
| COC(=O)C(CSSCC(NCCC(=O)c1cnccn1)C(=O)OC)NCCC(=O)c1cnccn1 (stereo not drawn) [Example 402, N,N-bis(2-pyrazinoylethyl)cystinemethylester] | 20 | 40 | 50 | 39 | 12 | 28 |
| COC(=O)C(CSSCC(NCCC(=O)c1ccc(C)s1)C(=O)OC)NCCC(=O)c1ccc(C)s1 (stereo not drawn) [Example 403, N,N-bis(2-(5-methyl-2-thiophenoyl)ethyl)cystinemethylester] | 20 | 40 | 50 | 57 | 17 | 83 |
| COC(=O)C(CSSCC(NCCC(=O)c1ccc2c(c1)Cc1ccccc1-2)C(=O)OC)NCCC(=O)c1ccc2c(c1)Cc1ccccc1-2 (stereo not drawn) [Example 404] | 20 | 40 | 50 | 54 | 84 | 94 |
| CC(C)(C)N(CCC(=O)c1ccc(I)s1)Cc1ccccc1 [Example 405, 2-(N-t-butyl-N-benzyl)aminoethyl-5-iodo-2-thienylketone] | 20 | 40 | 50 | 78 | 73 | 35 |
| COC(=O)C(CSSCC(NCCC(=O)c1ccc(I)s1)C(=O)OC)NCCC(=O)c1ccc(I)s1 (stereo not drawn) [Example 406, N,N-bis(5-iodo-2-thiophenoylethyl)cystinemethylester] | 20 | 40 | 50 | 49 | 43 | 62 |
| CC(C)(C)N(CCC(=O)c1sccc1Br)Cc1ccccc1 [Example 407, 2-(N-t-butyl-N-benzyl)aminoethyl-3-bromo-2-thienylketone] | 20 | 40 | 50 | 89 | 83 | 77 |
| CC(C)(C)N(CCC(=O)c1ncccc1Br)Cc1ccccc1 [Example 408, 2-(N-t-butyl-N-benzyl)aminoethyl-3-bromo-2-pyridylketone] | 20 | 40 | 50 | 76 | 83 | 77 |
| COC(=O)C(CSC)NCCC(=O)c1ccc(Br)s1 (stereo not drawn) [Example 409, N,N-bis(2-(5-bromo-2-thiophenoyl)ethyl)cystinemethylester] | 20 | 40 | 50 | 26 | 76 | 81 |
| O=C(CCNCCSSCCNCCC(=O)c1ccc(I)s1)c1ccc(I)s1 [Example 410] | 20 | 40 | 50 | 59 | 65 | 88 |
| CCC(C)N(CCC(=O)c1ccc(I)s1)C(C)CC (stereo not drawn) [Example 411] | 20 | 40 | 50 | 76 | 80 | 82 |
| CCC(C)N(CCC(=O)c1sccc1Br)C(C)CC (stereo not drawn) [Example 413] | 20 | 40 | 50 | 48 | 81 | 78 |
